# Assay results published in patent US20180021456A1, “SELF-ASSEMBLED TARGETED INCLUSION COMPLEXES FOR DRUG DELIVERY” (UNIVERSITY OF SOUTH FLORIDA, priority 2015, published 2018).
# Assays:
# [1] = system: extracellular signal-regulated kinases 1 and 2 (ERK1 and ERK2); test: Rapid phosphorylation of ERK1 and ERK2 (MAPK) after treatment; type: cell-based; settings: treatment at 1 μM
# Source text: Western Blot: In all cases, unless otherwise indicated, the western blots were visualized by Bio-Rad digital imaging system and analyzed by Quantity One 1-D analyzing software.
# MCF-7 cells = test: Competition assay of estrone and tamoxifen with CDE1-Ada-DOX uptake in MCF-7 cells (flow cytometry); type: cell-based, human; settings: CDE1-Ada-DOX 2 μM
# Procedure: FIG. 17 is a bar graph of the fluorescence intensity for competition assay of CDE1-Ada-DOX at 2 μM in MCF-7 cells in the presence of estrone and tamoxifen at 0.1-10 μM. The results are represented as means±SD from triplicate determinations.
# Flow cytometer: In all cases, unless otherwise indicated, the flow cytometric analysis was performed on a FACS (Becton Dickinson Immunocytometry Systems, San Jose, Calif.) by counting 10,000 events.
# Moreover, the competition assay of estrone and tamoxifen with CDE1-Ada-DOX in MCF-7 cells was conducted and is shown in FIG. 17. […] Moreover, the ER antagonist-tamoxifen, which is the most prescribed medicine to treat hormone receptor-positive breast cancer, is capable of binding to the estrogen receptor but blocks its activity. […] While for both estrone and tamoxifen, inhibition saturated at concentrations higher than 5 μM. […] Addition of an Ada-DOX guest led to the decomplexation of the estrogen moiety. […] The results are consistent and replicable with the TEM/SEM observations.
SMILES,time of maximum MAPK phosphorylation [1] [min],"inhibition at 5 µM (MCF-7 cells; Homo sapiens, MCF7, competitor at 5 μM) [%]",inhibition of CDE1-Ada-DOX uptake (MCF-7 cells; competitor at 1 μM and above (p<0.001))
"C[C@]12CC[C@@H]3c4ccc(O)cc4CC[C@H]3[C@@H]1CC[C@@H]2O [E2, 17β-estradiol]",10,,
CC/C(=C(\c1ccccc1)c1ccc(OCCN(C)C)cc1)c1ccccc1 [tamoxifen],,80,significantly inhibited
